Data from patent EP4603105A1, “PHARMACEUTICAL COMPOSITION CONTAINING CYCLIC COMPOUND HAVING SELECTIVE KRAS INHIBITORY EFFECT AGAINST HRAS AND NRAS” (CHUGAI SEIYAKU KABUSHIKI KAISHA, priority 2022, dated 2024).
pIC50, pKd: −log10 of the molar value. Like-named read-outs stand apart in the source and are kept apart here.

Legend:
[1] = system: human lung cancer strain NCI-H441; experiment: NCI-H441 cell proliferation inhibitory activity (CellTiter-Glo, 4 days); assay type: cell-based; settings: read-out: NCl-H441 IC50
Procedure, shortened: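 Proliferation was scored by […] measured after the reagent was added to cultures kept at 37°C in 5% carbon dioxide.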

HRAS wild-type protein = HRAS wild-type protein (Homo sapiens, UniProt P01112); experiment: Binding to HRAS by surface plasmon resonance (SPR), KD and KD ratio to KRAS
Procedure, shortened: (§1)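 Compound binding is evaluated by SPR single-cycle kinetics, with concentrations added intermittently from low to high for 75 s each. Target surfaces carry GDP-loaded biotinylated Avi-RAS at about 100–300 RU, regenerated after each cycle; temperature 30°C. A 1:1 binding model gives KD.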

[2] = molecular target: GDP-bound KRAS wild-type protein (Homo sapiens, UniProt P01116); experiment: Binding to KRAS by surface plasmon resonance (SPR), dissociation constant KD
Procedure, shortened: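 Running buffer contained 10 µM GDP and 10 mM MgCl2 to keep RAS in the GDP state, with 4% DMSO at pH 7.4. Compounds were flowed at 100 µL/min in 75 s steps of rising concentration over captured biotin-Avi RAS at 30°C. Sensorgrams were fitted 1:1 for KD.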

[3] = molecular target: GDP-bound NRAS wild-type protein (Homo sapiens, UniProt P01111); experiment: Binding to NRAS by surface plasmon resonance (SPR), KD and KD ratio to KRAS
Procedure, shortened: as §1

[4] = ratio of KD for HRAS wild-type protein to KD for KRAS
[5] = ratio of KD for GDP-bound NRAS wild-type protein to KD for KRAS
[6] = 50% proliferation inhibitory concentration, four days
[7] = ratio of KD with respect to HRAS wild-type protein to KD with respect to KRAS
[8] = Single Cycle Kinetics, 1:1 binding model
[9] = ratio of KD with respect to GDP-bound NRAS wild-type protein to KD with respect to KRAS

GDP-bound NRAS wild-type protein, sequence (P01111 whole entry): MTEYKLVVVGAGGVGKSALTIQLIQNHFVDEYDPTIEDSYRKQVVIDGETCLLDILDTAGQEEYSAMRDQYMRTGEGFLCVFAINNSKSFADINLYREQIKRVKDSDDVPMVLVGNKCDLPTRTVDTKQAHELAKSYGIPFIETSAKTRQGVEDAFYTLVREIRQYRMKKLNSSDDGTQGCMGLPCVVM
HRAS wild-type protein, sequence (P01112 whole entry): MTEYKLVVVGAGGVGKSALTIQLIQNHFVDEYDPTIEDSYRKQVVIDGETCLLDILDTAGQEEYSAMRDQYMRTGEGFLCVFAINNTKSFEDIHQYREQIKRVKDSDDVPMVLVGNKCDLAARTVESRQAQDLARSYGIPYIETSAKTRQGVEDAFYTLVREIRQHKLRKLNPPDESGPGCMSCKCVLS
GDP-bound KRAS wild-type protein, sequence (P01116 1-188 isoform P01116-2): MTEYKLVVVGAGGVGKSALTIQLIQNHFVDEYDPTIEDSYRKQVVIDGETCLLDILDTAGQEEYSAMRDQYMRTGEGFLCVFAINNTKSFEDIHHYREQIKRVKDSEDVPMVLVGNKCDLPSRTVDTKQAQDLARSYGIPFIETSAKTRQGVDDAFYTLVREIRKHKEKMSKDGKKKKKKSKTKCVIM

Row | Compound | pIC50 ([1]; NCI-H441 cells, 4 days) | HRAS /KRAS (HRAS wild-type protein; [4]) | pKd ([2]; Single Cycle Kinetics) | NRAS /KRAS [3, 5] | pIC50 [1, 6] | HRAS /KRAS (HRAS wild-type protein; [7]) | pKd [2, 8] | NRAS /KRAS [3, 9] | pKd ([2]; 1:1 binding model)
1 | CCCOC[C@H]1C(=O)N[C@@H]([C@H](C)CC)C(=O)N(CCC)CC(=O)N(C)[C@H]2C/C=C\CCN(C2=O)[C@@H](Cc2ccc(C(F)F)cc2)C(=O)N(C)CC(=O)N[C@@H](CCc2cc(F)c(C(F)(F)F)c(F)c2)C(=O)N2C[C@H](OC(C)C)C[C@H]2C(=O)N(C)C2(CCC2)C(=O)N(C)[C@@H](C(CC)CC)C(=O)N(C)[C@H](C(=O)N(C)C)CC(=O)N1C [PP3492] | 7.05 | A (a compound having 10 or more and less than 20 is denoted as A) | 8.38 | A (a compound having 10 or more and less than 20 is denoted as A) | – | – | – | – | –
2 | CCO[C@@H]1C[C@H]2C(=O)NC3(CCC3)C(=O)N(C)[C@@H](C3CCCC3)C(=O)N(C)[C@H](C(=O)N(C)C)CC(=O)N(C)[C@@H](CC3CC3)C(=O)N[C@@H]([C@@H](C)CC)C(=O)N(C)CC(=O)N(C)[C@H]3C/C=C\CCN(C3=O)[C@@H](Cc3ccc(F)cc3C)C(=O)N(C)CC(=O)N[C@@H](CCc3ccc(Cl)c(Cl)c3)C(=O)N2C1 [PP1476] | – | – | – | – | 6.67 | B (a compound having 3 or more and less than 10 is denoted as B) | 9.00 | A (a compound having 10 or more and less than 20 is denoted as A) | –
3 | CCO[C@@H]1C[C@H]2C(=O)NC3(CCC3)C(=O)N(C)[C@@H](C3CCCC3)C(=O)N(C)[C@H](C(=O)N(C)C)CC(=O)N(C)[C@@H](Cc3cccnc3)C(=O)N[C@@H]([C@@H](C)CC)C(=O)N(C)CC(=O)N(C)[C@H]3CCCCCN(C3=O)[C@@H](Cc3ccc(F)cc3)C(=O)N(C)CC(=O)N[C@@H](CCc3cc(F)c(C(F)(F)F)c(F)c3)C(=O)N2C1 [PP1196] | – | – | – | – | 7.29 | B (a compound having 3 or more and less than 10 is denoted as B) | 10.40 | B (a compound having 3 or more and less than 10 is denoted as B) | –
4 | CCCO[C@@H]1C[C@H]2C(=O)NC3(CC(C)(C)C3)C(=O)N(C)[C@@H](C3CCCC3)C(=O)N(C)[C@H](C(=O)N(C)CC)CC(=O)N(C)[C@@H](COCC)C(=O)N[C@@H]([C@@H](C)CC)C(=O)N3CCC[C@H]3C(=O)N(C)[C@H]3C/C=C\CCN(C3=O)[C@@H](Cc3ccc(C)cc3)C(=O)N(C)CC(=O)N[C@@H](CCc3ccc(C(F)(F)F)c(OC)c3)C(=O)N2C1 [PP3467] | 7.22 | A (a compound having 10 or more and less than 20 is denoted as A) | 8.89 | A (a compound having 10 or more and less than 20 is denoted as A) | – | – | – | – | –
5 | CCC[C@H]1C(=O)N[C@@H](CC(C)C)C(=O)N2C[C@@H](OC)C[C@H]2C(=O)N(C)[C@H]2C/C=C\CCN(C2=O)[C@@H](Cc2ccc(C)cc2)C(=O)N(C)CC(=O)N[C@@H](CCc2ccc(C(F)(F)F)c(Cl)c2)C(=O)N2C[C@H](OCC)C[C@H]2C(=O)NC2(CC(C)(C)C2)C(=O)N(C)[C@@H](C2CCCC2)C(=O)N(C)[C@H](C(=O)N(C)C)CC(=O)N1C [PP2555] | 6.67 | B (a compound having 3 or more and less than 10 is denoted as B) | – | A (a compound having 10 or more and less than 20 is denoted as A) | – | – | – | – | 8.39
6 | CCO[C@@H]1C[C@H]2C(=O)NC3(CCC3)C(=O)N(C)[C@@H](C3CCCC3)C(=O)N(C)[C@H](C)CC(=O)N(C)[C@@H](CC3CC3)C(=O)N[C@@H]([C@@H](C)CC)C(=O)N(C)CC(=O)N(C)[C@H]3C/C=C\CCN(C3=O)[C@@H](Cc3ccc(C)cc3)C(=O)N(C)CC(=O)N[C@@H](CCc3cc(F)c(C(F)(F)F)c(F)c3)C(=O)N2C1 [PP1410] | – | – | – | – | 7.29 | B (a compound having 3 or more and less than 10 is denoted as B) | 9.49 | B (a compound having 3 or more and less than 10 is denoted as B) | –
7 | CCC[C@H]1C(=O)N[C@@H]([C@@H](C)CC)C(=O)N(C2CC2)CC(=O)N(C)[C@H]2C/C=C\CCN(C2=O)[C@@H](Cc2ccc(C)cc2)C(=O)N(C)CC(=O)N[C@@H](CCc2cc(F)c(C(F)(F)F)c(F)c2)C(=O)N2CC[C@H](OC)[C@H]2C(=O)N(C)C2(CCC2)C(=O)N(C)[C@@H](C2CCCC2)C(=O)N(C)[C@H](C(=O)N(C)C)CC(=O)N1C [PP3285] | 8.03 | A (a compound having 10 or more and less than 20 is denoted as A) | 9.82 | A (a compound having 10 or more and less than 20 is denoted as A) | – | – | – | – | –
